Results published in patent USRE42890E1, “Furazanobenzimidazoles” (Basilea Pharmaceutica AG, priority 2003, dated 2011).

Tests used:
Jurkat = experiment: MTS proliferation assay, Jurkat; format: cell-based, human; conditions: 72 h incubation, read-out: MTS proliferation assay IC 50 Jurkat
How it was run: (§1)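 Absorbance at 492 nm after 3 h with MTS reagent gave the proliferation read-out. Before that, cells in RPMI-1640 complete medium (5% or 10% FCS) were treated 72 h with compound at four final concentrations, 0.3 to 10 μM.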

HT1080 = experiment: MTS proliferation assay, HT1080; format: cell-based, human; conditions: HT1080, 72 h incubation; read-out: MTS proliferation assay IC 50 HT1080
Procedure: (§2) Cell lines are cultured in RPMI-1640 tissue culture medium containing either 5% or 10% fetal calf serum, 0.05 mM 2-mercaptoethanol, 2 mM glutamine and penicillin/streptomycin 50 μg/ml (complete medium) (Sigma, Buchs, Switzerland). General growth conditions are 37° C. and 7.5% CO2.
The following human cell lines (either EGFP transfected or not) are being used: HeLa (ATCC: CCL-2), KB (ATCC: CCL-17), MCF7 (ATCC: HTB-22), SK-BR-3 (ATCC: HTB-30), SK-Mel 1 (ATCC: HTB-67), SK-Mel 28 (ATCC: HTB-72), PC-3 (ATCC: CRL-1435), SW 480 (ATCC: CCL-228), NCl-H460 (ATCC: HTB-177), NCl-H1792 (ATCC: CRL-5895), HT1080 (ATCC: CCL-21), Jurkat (ATCC: TIB-152), Ramos (ATCC: CRL-1596), Raji (ATCC: CCL-86), H9 (ATCC: HTB-176), Hut78 (ATCC: TIB-161), K562 (ATCC: CCL 243), HL-60 (ATCC: CCL 240), U-87MG (ATCC: HTB-14), HepG2 (ATCC: HB-8065), U-2 OS (ATCC: HTB-96), Saos-2 (ATCC: HTB-85), U937 (ATCC: CRL 1593), Hs 578T (ATCC: HTB 126), HBL-100 (ATCC: HTB 124), Molt-4 (ATCC: CRL 1582).
The assay is performed in 96 well tissue culture plates. The cells (range: 1.5*10^3-10^4) are seeded out in 80 μl complete medium 24 h prior to compound treatment. The test compounds are added in 20 μl complete medium containing max 5% DMSO. The final compound concentrations in the assays are 10 μM, 3 μM, 1 μM and 0.3 μM, respectively. The assay plates are incubated for 72 h at culture conditions. The MTS reagent is prepared according to the manufacturer's protocol (Promega G1111). 20 μl MTS reagent are added to each well, the assay plates are quickly spun and incubated for another 3 h at culture conditions. Subsequently, the plates are shortly shaked and absorption measured with a microplate-reader at 492 nm.

HeLa = experiment: MTS proliferation assay, HeLa; format: cell-based, human; conditions: 72 h incubation, read-out: MTS proliferation assay IC 50 HeLa
How it was run: as §1

MRC5 = experiment: MTS proliferation assay, MRC5; format: cell-based; conditions: MRC5, 72 h incubation; read-out: MTS proliferation assay IC 50 MRC5
How it was run: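 Read-out: MTS absorbance at 492 nm after 3 h reagent incubation. Before that, cells grew 72 h at 37° C/7.5% CO2 with test compounds at final concentrations of 10 μM, 3 μM, 1 μM and 0.3 μM, added 24 h post-seeding.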

[1] = test system: adherent cells or suspension cells; experiment: Hoechst 33342 nuclear staining (fraction of apoptotic nuclei); format: cell-based; set-up: key: 0 relating to no activity; 1 relating to weak activity comprising less than 70% of the cells; score 2 relating to strong activity comprising more than 70% of the cells
Procedure: as §2
This assay is performed in 96 well tissue culture plates. Appropriate number of cells (adherent cells: 3-5*10^3, suspension cells: 8-10*10^3) are being seeded out in 80 μl complete medium. Adherent cells are incubated for 24 h for proper spreading out before addition of test compounds while suspension cells are immediately treated with test compounds after seeding out. The test compounds are added in 20 μl complete medium containing max 5% DMSO. […] After 24 h or 48 h incubation at culture conditions, 10 μl medium containing Hoechst 33342 dye (Sigma B-2261) at 2-5 μg/ml are added to each well. The assay plates are then further incubated for 30 minutes and subsequently analyzed with a standard inverted fluorescence microscope.
The readout allows the determination of the fraction of apoptotic nuclei as well as other morphological criteria specific for apoptosis as a function of the treatment. The following scores are used: 0 relating to no activity, 1 relating to weak activity comprising less than 70% of the cells and score 2 relating to strong activity comprising more than 70% of the cells.

| IC50 (Jurkat) [nM] | IC50 (HT1080) [nM] | IC50 (HeLa) [nM] | SMILES | IC50 (MRC5) [nM] | Hoechst 33342 nuclear staining score ([1]; H460, conc 0.01 μm) | Hoechst 33342 nuclear staining score ([1]; H460, conc 0.1 μm) | Hoechst 33342 nuclear staining score ([1]; H460, conc 1 μm) | Hoechst 33342 nuclear staining score ([1]; HeLa, conc 0.01 μm) | Hoechst 33342 nuclear staining score ([1]; HeLa, conc 0.1 μm) | Hoechst 33342 nuclear staining score ([1]; HeLa, conc 1 μm) | Hoechst 33342 nuclear staining score ([1]; Jily, conc 0.01 μm) | Hoechst 33342 nuclear staining score ([1]; Jily, conc 0.1 μm) | Hoechst 33342 nuclear staining score ([1]; Jily, conc 1 μm) | Hoechst 33342 nuclear staining score ([1]; Jurkat, conc 0.01 μm) | Hoechst 33342 nuclear staining score ([1]; Jurkat, conc 0.1 μm) | Hoechst 33342 nuclear staining score ([1]; Jurkat, conc 1 μm) | Hoechst 33342 nuclear staining score ([1]; MRC5, conc 0.01 μm) | Hoechst 33342 nuclear staining score ([1]; MRC5, conc 0.1 μm) | Hoechst 33342 nuclear staining score ([1]; MRC5, conc 1 μm) | Hoechst 33342 nuclear staining score ([1]; PBLs, conc 0.01 μm) | also measured |
| --- | --- | --- | --- | --- | --- | --- | --- | --- | --- | --- | --- | --- | --- | --- | --- | --- | --- | --- | --- | --- | --- |
| > 1000 | > 1000 | > 1000 | Cc1cc2nc(-c3nonc3N)n(CC(=O)c3ccc(Cl)cc3)c2cc1C [Example 110] | > 1000 | 0 | 0 | 0 | 0 | 0 | 0 | 0 | 0 | 0 | 0 | 0 | 0 | 0 | 0 | 0 | 0 | Hoechst 33342 nuclear staining score ([1]; PBLs, conc 0.1 μm): 0; Hoechst 33342 nuclear staining score ([1]; PBLs, conc 1 μm): 0 |
| > 1000 | > 1000 | > 1000 | COc1ccc(C(=O)Cn2c(-c3nonc3N)nc3cc(C)c(C)cc32)cc1 [Example 111] | > 1000 | 0 | 0 | 0 | 0 | 0 | 0 | 0 | 0 | 0 | 0 | 0 | 0 | 0 | 0 | 0 | 0 | Hoechst 33342 nuclear staining score ([1]; PBLs, conc 0.1 μm): 0; Hoechst 33342 nuclear staining score ([1]; PBLs, conc 1 μm): 0 |
| > 1000 | > 1000 | > 1000 | Cc1cc2nc(-c3nonc3N)n(CC(=O)c3ccc(-c4ccccc4)cc3)c2cc1C [Example 112] | > 1000 | 0 | 0 | 0 | 0 | 0 | 0 | 0 | 0 | 0 | 0 | 0 | 0 | 0 | 0 | 0 | 0 | Hoechst 33342 nuclear staining score ([1]; PBLs, conc 0.1 μm): 0; Hoechst 33342 nuclear staining score ([1]; PBLs, conc 1 μm): 0 |
| > 1000 | > 1000 | > 1000 | COc1cc2nc(-c3nonc3N)n(CC(=O)c3ccccc3)c2cc1OC [Example 113] | > 1000 | 0 | 0 | 0 | 0 | 0 | 0 | 0 | 0 | 0 | 0 | 0 | 0 | 0 | 0 | 0 | 0 | Hoechst 33342 nuclear staining score ([1]; PBLs, conc 0.1 μm): 0; Hoechst 33342 nuclear staining score ([1]; PBLs, conc 1 μm): 0 |
| > 1000 | > 1000 | > 1000 | COc1cc2nc(-c3nonc3N)n(CC(=O)c3ccc(Cl)cc3)c2cc1OC [Example 114] | > 1000 | 0 | 0 | 0 | 0 | 0 | 0 | 0 | 0 | 0 | 0 | 0 | 0 | 0 | 0 | 0 | 0 | Hoechst 33342 nuclear staining score ([1]; PBLs, conc 0.1 μm): 0; Hoechst 33342 nuclear staining score ([1]; PBLs, conc 1 μm): 0 |
| > 1000 | > 1000 | > 1000 | COc1cc2nc(-c3nonc3N)n(CC(=O)c3ccc(Br)cc3)c2cc1OC [Example 115] | > 1000 | 0 | 0 | 0 | 0 | 0 | 0 | 0 | 0 | 0 | 0 | 0 | 0 | 0 | 0 | 0 | 0 | Hoechst 33342 nuclear staining score ([1]; PBLs, conc 0.1 μm): 0; Hoechst 33342 nuclear staining score ([1]; PBLs, conc 1 μm): 0 |
| > 1000 | > 1000 | > 1000 | COc1ccc(C(=O)Cn2c(-c3nonc3N)nc3cc(OC)c(OC)cc32)cc1 [Example 116] | > 1000 | 0 | 0 | 0 | 0 | 0 | 0 | 0 | 0 | 0 | 0 | 0 | 0 | 0 | 0 | 0 | 0 | Hoechst 33342 nuclear staining score ([1]; PBLs, conc 0.1 μm): 0; Hoechst 33342 nuclear staining score ([1]; PBLs, conc 1 μm): 0 |
